In patent publication US20020082419A1, “2,4-pentadienoic acid derivatives having retinoid-like biological activity” (Allergan Sales, Inc., priority 1995, published 2002):

Assays:
RARΓ = target: T1, RARΓ (Homo sapiens, UniProt P13631); assay: Holoreceptor transactivation assay, RARΓ; format: cell-based; settings: for EC50: CV1 cells, luciferase reporter, 36 hours incubation; for Transactivation Assay Afficacy (% of RA activity) RARΓ: relative to all trans retinoic acid
T1 construct: expressed in transfected cells; host or cells: CV1 cells
T1 sequence (P13631 1-454): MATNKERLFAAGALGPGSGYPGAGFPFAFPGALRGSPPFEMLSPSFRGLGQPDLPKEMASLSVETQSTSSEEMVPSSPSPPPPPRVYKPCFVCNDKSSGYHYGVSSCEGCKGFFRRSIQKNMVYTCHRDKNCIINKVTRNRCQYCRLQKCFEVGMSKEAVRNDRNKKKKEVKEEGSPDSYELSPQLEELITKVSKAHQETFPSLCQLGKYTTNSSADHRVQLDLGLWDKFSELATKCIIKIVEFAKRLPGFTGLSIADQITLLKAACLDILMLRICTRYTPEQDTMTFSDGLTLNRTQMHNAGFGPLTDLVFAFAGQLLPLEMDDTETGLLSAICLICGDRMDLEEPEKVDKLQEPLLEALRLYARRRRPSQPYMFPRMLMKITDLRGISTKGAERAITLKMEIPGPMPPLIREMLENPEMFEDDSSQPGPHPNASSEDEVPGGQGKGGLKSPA
Description: (§1) A description of the holoreceptor transactivation assay is also provided below.
(§2) (8). […] (8, 9). […] A β-galactosidase (50 ng) expression vector was used as an internal control in the transfections to normalize for variations in transfection efficiency. The cells were transfected in triplicate for 6 hours, followed by incubation with retinoids for 36 hours, and the extracts were assayed for luciferase and β-galactosidase activities. The detailed experimental procedure for holoreceptor transactivations has been described in Heyman et al. above, and Allegretto et al. cited above. […] The results of ligand binding assay are expressed in KD50 numbers.

RXRα [1] = target: T2, RXRα (Homo sapiens, UniProt P19793); assay: Holoreceptor transactivation assay, RXRα; format: cell-based; settings: for EC50: CV1 cells, luciferase reporter, 36 hours incubation; for Transactivation Assay Afficacy (% of RA activity) RXRα: relative to all trans retinoic acid
T2 construct: expressed in transfected cells; host or cells: CV1 cells
T2 sequence (P19793 1-462): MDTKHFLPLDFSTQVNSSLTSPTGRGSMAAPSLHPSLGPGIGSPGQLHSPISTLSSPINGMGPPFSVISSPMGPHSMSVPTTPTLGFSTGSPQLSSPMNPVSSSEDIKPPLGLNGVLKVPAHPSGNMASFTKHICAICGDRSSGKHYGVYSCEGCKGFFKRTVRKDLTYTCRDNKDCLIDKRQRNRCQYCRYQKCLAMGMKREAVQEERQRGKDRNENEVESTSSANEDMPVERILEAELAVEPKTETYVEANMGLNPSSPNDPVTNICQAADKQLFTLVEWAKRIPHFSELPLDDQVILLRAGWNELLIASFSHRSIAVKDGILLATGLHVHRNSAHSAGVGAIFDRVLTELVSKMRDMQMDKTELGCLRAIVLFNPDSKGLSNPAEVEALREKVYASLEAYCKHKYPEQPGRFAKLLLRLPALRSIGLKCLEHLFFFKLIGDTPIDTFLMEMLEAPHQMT
From the text: (§3) A holoreceptor transactivation assay and a ligand binding assay which measure the agonist like activity of the compounds of the invention, or their ability to bind to the several retinoid receptor sub-types, respectively, are described in published PCT Application No. WO WO93/11755 (particularly on pages 30-33 and 37-41) published on Jun. 24, 1993, the specification of which is also incorporated herein by reference. A description of the holoreceptor transactivation assay is also provided below.
(§4) CV1 cells (5,000 cells/well) were transfected with an RAR reporter plasmid ▴MTV-TREp-LUC (50 ng) along with one of the RAR expression vectors (10 ng) in an automated 96-well format by the calcium phosphate procedure of Heyman et al. Cell 68, 397-406. (8). For RXR transactivation assays, an RXR-responsive reporter plasmid CRBP II-TK-LUC (50 ng) along with one of the RXR expression vectors (10 ng) was used substantially as described by Heyman et al. above, and Allegretto et al. J. Biol. Chem. 268, 26625-26633. (8, 9). RXR-reporter contained DRI elements from human CRBP II promoter (see Mangelsdorf et al. The Retinoids: Biology, Chemistry and Medicine, pp 319-349, Raven Press Ltd., New York and Heyman et al., cited above) (1, 8). A β-galactosidase (50 ng) expression vector was used as an internal control in the transfections to normalize for variations in transfection efficiency. The cells were transfected in triplicate for 6 hours, followed by incubation with retinoids for 36 hours, and the extracts were assayed for luciferase and β-galactosidase activities. The detailed experimental procedure for holoreceptor transactivations has been described in Heyman et al. above, and Allegretto et al. cited above. The results obtained in this assay in connection with examplary compounds in accordance with the present invention are expressed in EC50 numbers, as they are also in the chimeric receptor transactivation assay. The Heyman et al. Cell 68, 397-406, Allegretto et al. J. Biol. Chem. 268, 26625-26633, and Mangelsdorf et al. The Retinoids: Biology, Chemistry and Medicine, pp 319-349, Raven Press Ltd., New York, are expressly incorporated herein by reference. The results of ligand binding assay are expressed in KD50 numbers.

RARβ = target: T3, RARβ (Homo sapiens, UniProt P10826); assay: Holoreceptor transactivation assay, RARβ; format: cell-based; settings: for EC50: CV1 cells, luciferase reporter, 36 hours incubation; for Transactivation Assay Afficacy (% of RA activity) RARβ: relative to all trans retinoic acid
T3 construct: expressed in transfected cells; host or cells: CV1 cells
T3 sequence (P10826 1-455): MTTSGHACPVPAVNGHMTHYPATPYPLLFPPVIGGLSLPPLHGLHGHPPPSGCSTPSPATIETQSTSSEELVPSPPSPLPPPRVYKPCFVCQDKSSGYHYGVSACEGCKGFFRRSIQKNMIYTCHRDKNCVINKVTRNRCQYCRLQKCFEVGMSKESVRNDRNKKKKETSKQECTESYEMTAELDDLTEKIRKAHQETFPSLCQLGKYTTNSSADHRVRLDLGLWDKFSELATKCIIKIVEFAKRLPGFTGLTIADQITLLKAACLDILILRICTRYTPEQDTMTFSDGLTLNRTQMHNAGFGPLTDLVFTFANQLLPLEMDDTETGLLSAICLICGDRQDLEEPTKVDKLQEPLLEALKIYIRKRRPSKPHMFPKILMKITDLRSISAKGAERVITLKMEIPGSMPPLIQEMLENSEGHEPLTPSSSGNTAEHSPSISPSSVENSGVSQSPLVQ
Description: as §1, §2

RXRΓ = target: T4, RXRΓ (Mus musculus, UniProt P28705); assay: Holoreceptor transactivation assay, RXRΓ; format: cell-based; settings: for EC50: CV1 cells, luciferase reporter, 36 hours incubation; for Transactivation Assay Afficacy (% of RA activity) RXRΓ: relative to all trans retinoic acid
T4 construct: expressed in transfected cells; host or cells: CV1 cells
T4 sequence (P28705 1-463): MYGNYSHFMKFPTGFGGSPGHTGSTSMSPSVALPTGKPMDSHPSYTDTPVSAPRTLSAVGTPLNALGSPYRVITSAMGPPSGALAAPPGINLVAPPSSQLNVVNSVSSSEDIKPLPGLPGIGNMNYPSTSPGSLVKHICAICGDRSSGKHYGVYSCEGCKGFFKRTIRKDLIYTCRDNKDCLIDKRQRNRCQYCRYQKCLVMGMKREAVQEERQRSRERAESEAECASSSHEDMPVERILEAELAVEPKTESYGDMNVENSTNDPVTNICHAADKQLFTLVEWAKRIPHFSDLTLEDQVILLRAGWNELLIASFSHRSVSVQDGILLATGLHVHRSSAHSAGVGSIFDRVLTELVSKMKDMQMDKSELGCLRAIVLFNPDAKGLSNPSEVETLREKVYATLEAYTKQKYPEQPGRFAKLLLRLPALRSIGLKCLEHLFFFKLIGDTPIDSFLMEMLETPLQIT
Description: as §1, §2

RXRβ = target: T5, RXRβ (Mus musculus, UniProt P28704); assay: Holoreceptor transactivation assay, RXRβ; format: cell-based; settings: relative to all trans retinoic acid; read-out: Transactivation Assay Afficacy (% of RA activity) RXRβ
T5 sequence (P28704 1-520): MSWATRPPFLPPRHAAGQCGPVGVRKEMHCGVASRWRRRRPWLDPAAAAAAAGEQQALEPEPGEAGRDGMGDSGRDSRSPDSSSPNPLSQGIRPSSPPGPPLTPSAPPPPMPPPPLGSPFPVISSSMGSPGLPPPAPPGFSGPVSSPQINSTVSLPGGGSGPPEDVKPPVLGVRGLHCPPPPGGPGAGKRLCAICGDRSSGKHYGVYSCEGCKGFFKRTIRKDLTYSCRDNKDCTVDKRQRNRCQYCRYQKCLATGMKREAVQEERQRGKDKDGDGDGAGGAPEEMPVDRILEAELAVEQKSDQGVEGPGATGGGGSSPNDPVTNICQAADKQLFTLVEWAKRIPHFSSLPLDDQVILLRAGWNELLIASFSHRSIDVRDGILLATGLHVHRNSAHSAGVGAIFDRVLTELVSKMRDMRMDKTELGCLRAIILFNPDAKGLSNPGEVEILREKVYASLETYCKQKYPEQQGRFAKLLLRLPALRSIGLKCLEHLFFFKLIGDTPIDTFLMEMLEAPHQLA
Description: as §1, §2

RARα = target: T6, RARα (Homo sapiens, UniProt P10276); assay: Holoreceptor transactivation assay, RARα; format: cell-based; settings: for EC50: CV1 cells, luciferase reporter, 36 hours incubation; for Transactivation Assay Afficacy (% of RA activity) RARα: relative to all trans retinoic acid
T6 construct: expressed in transfected cells; host or cells: CV1 cells
T6 sequence (P10276 1-462): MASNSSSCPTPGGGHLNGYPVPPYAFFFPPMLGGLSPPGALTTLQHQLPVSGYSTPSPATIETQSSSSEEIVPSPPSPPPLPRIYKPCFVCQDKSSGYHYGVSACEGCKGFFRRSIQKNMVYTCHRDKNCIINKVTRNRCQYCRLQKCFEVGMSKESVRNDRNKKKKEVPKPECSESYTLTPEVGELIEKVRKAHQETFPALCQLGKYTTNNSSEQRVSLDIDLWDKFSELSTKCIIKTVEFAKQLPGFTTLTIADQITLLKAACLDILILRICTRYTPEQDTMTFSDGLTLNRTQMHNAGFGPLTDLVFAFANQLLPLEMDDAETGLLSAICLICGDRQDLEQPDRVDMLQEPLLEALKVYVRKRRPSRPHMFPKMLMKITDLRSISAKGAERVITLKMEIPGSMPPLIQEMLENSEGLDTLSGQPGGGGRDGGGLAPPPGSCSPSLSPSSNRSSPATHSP
Description: as §1, §2

RXRα [2] = target: T2, RXRα; assay: Ligand binding assay, RXRα; settings: read-out: Ligand Binding Assay KD50 RXRα
From the text: as §3
as §4, with “The Heyman et al. Cell 68, 397-406, Allegretto et al. J. Biol. Chem. 268, 26625-26633, and Mangelsdorf et al. The Retinoids: Biology, Chemistry and Medicine, pp 319-349, Raven Press Ltd., New York, are expressly incorporated herein by reference. The results of ligand binding assay are expressed in KD50 numbers.” left out

Row | Kd (RXRα [2]) | Structure (SMILES) | EC50 (RARΓ) | Transactivation Assay Afficacy (% of RA activity) RARΓ (RARΓ) | EC50 (RXRα [1]) | Transactivation Assay Afficacy (% of RA activity) RXRα (RXRα [1]) | EC50 (RARβ) | Transactivation Assay Afficacy (% of RA activity) RARβ (RARβ) | EC50 (RXRΓ) | Transactivation Assay Afficacy (% of RA activity) RXRΓ (RXRΓ) | Emax (RXRβ) | EC50 (RARα) | Transactivation Assay Afficacy (% of RA activity) RARα (RARα)
1 |  | CC(/C=C/c1ccccc1-c1ccc2c(c1)C(C)(C)CCC2(C)C)=C\C(=O)O [Compound 9, 3-Methyl-5-[2-(5,5,8,8,-tetramethyl-5,6,7,8-tetrahydronaphth-2-yl)phenyl]pent-2(E),4(E)-dienoic Acid] | > 1000 nM | 8.0 % of RA activity | 290 nM | 59.0 % of RA activity | > 1000 nM | 8.0 % of RA activity | 240 nM | 50.0 % of RA activity | 94% | > 1000 nM | 2.0 % of RA activity
2 | 5 nM | CC(C=CC1CC1(C)c1ccc2c(c1)C(C)(C)CCO2)=CC(=O)O (stereo not drawn) [Compound 21, 3,7-Dimethyl,6(RS),7(SR) methano-7-(4,4-dimethyl-chroman-6-yl),2(E),4(E)-heptadienoic Acid] | > 1000 nM | 14.0 % of RA activity | 27 nM | 83.0 % of RA activity | 1800 nM | 26.0 % of RA activity | 29 nM | 85.0 % of RA activity | 93% | > 1000 nM | 4.0 % of RA activity
